Results taken from US4252947A, “Novel quinazolinone” (Roussel Uclaf, priority 1976, dated 1981).
Counter-ions that a name gives are not always drawn.

Experiments:
[1] = Oral acute toxicity (LD50, method of Finney); format: in vivo; conditions: Swiss female mice; for LD50: mouse, in vivo, dose which caused death in 50% of the animals
Protocol: The oral acute toxicity was determined for products A and A-B on groups of Swiss female mice by the method of Finney and the results were expressed as LD50 (the dose which caused death in 50% of the animals). The DL50 for product A was 3.7 mg/kg and for product A-B was 6.8 mg/kg. The acute toxicity of product A is only about 1.8 times greater than product A-B.

[2] = test system: Eimeria tenella; assay: Coccidiostatic activity in chicks infested with Eimeria tenella; format: in vivo; conditions: for weight gain / weight gain (or less) as compared to the animals which received product A-B: chicks infested with Eimeria tenella; for weight gain: 14 to 22 days old; for weight gain / weight gain (or less) as compared to the animals which received product A-B / consumption index: feed with 1 ppm of Product A or 3 ppm of Product A-B; for weight gain (or less) as compared to the animals which received product A-B: relative to product A-B; for consumption index: feed consumed compared to weight gain, higher = more sick
Text: The coccidiostatic activity of the product of Step E of Example 1 (product A) was studied in comparison with that of a racemic mixture of 7-bromo-6-chloro-3-[3-(3-hydroxy-2-piperidyl)-acetonyl]-4(3H)-quinazolinone (product A-B), 14 day old chicks were weighed and were divided into 3 groups of 13 animals. One group received a feed containing 1 ppm of product A, a second group received a feed containing 3 ppm of product A-B and the 3rd group received just the feed without any additive. The next day, the chicks were infested with Eimeria tenella coccidies and when the chicks were 22 days old, they were weighed as well as the remaining feed. The caecums were removed and the number of caecal lesions were noted. Also noted was (1) the weight of gain (or less) of the chicks as compared to the animals which received product A-B, (2) consumption index which is the amount of feed consumed compared to the weight gain which indice was all the more elevated than the animals which were more sick and (3) the intensity of the lesions on a seal of 1 to 6 were noted.

SMILES: O=C(CC1NCCCC1O)Cn1cnc2cc(Br)c(Cl)cc2c1=O (racemic) [Product A-B, 7-bromo-6-chloro-3-[3-(3-hydroxy-2-piperidyl)-acetonyl]-4(3H)-quinazolinone, reference compound]
- LD50 [1]: 6.8 mg/kg
- weight gain [2]: 90.30 g
- weight gain (or less) as compared to the animals which received product A-B [2]: 0%
- consumption index [2]: 2.018

SMILES: O=C(C[C@H]1NCCC[C@@H]1O)Cn1cnc2cc(Br)c(Cl)cc2c1=O (single isomer, unassigned) [Product A, dextrorotary 7-bromo-6-chloro-3-[3-(3-hydroxy-2-piperidyl)-acetonyl]-4(3H)-quinazolinone hydrobromide]
- LD50 [1]: 3.7 mg/kg
- acute toxicity greater than product A-B ([1]; ratio to racemic mixture): about 1.8 times
- weight gain [2]: 103.07 g
- weight gain (or less) as compared to the animals which received product A-B [2]: +14.14%
- consumption index [2]: 1.807
- coccidiostatic activity greater than the racemic product A-B ([2]; ratio to racemic mixture): 3 times
